{"source": "patent US20250339415A1", "about": "“DISULFIDE COMPOUNDS AS MEDICAMENTS” (CYTACOAT AB, priority 2021, published 2025)", "key": {"5637 cells": {"system": "5637 cells", "test": "Cancer cell viability assay (XTT)", "assay_type": "cell-based, human", "conditions": "for % cell survival / Absorbance unit / Absorbance unit - Blank: triplicate, (hydrochloride)", "protocol": "(§1) Two types of human uroepithelial cancer cells (124 and 5637) were tested in an XTT assay. “T24” cells were cultured in McCoy's 5A (Modified) Medium, Catalog number: 16600082 from GIBCO. “5637” cells were cultured in RPMI 1640 Medium, Catalog number: 21875034 from GIBCO. Different concentrations of 2-(Pyridyldithio)ethylamine (hydrochloride) (PDEA) (CAS: 106139-15-5): 12.5, 25, 50, 100 and 200 μM, were prepared in each cell culture medium.\n(§2) 1. 5×10^5 cells were seeded into 24-well plate overnight at 37-degree C. in 5% CO2.\n(§3) 2. 80% confluent cells were treated with 200 μl medium with different concentrations of PDEA and the control.\n(§4) 3. After 24 hrs, medium (MacCoy's 5a for T24, RPMI for 5637) was removed and cells were washed 2 times with 200 μl of pre-warmed PBS/well. 200 μl (96-well) of pre-prepared fresh medium containing XTT-menadione to wells were added (mentioned below).\n(§5) 4. Cells were incubated for at least 3 h at 37-degree C. Medium with XTT only in empty wells were served as background control.\n(§6) 5. The supernatant was transferred to 96-well plate and the concentration were measured at 450 nm and 690 nm. 690 nm was used as a background measurement and subtracted from 450 nm value.\n(§7) Menadione (172.18 g/mol, light sensitive): dissolve 1 mg/ml in absolute ethanol. XTT: 1 mg/ml dissolve in PBS, 0.2 μm filtrate sterilised, store at −20° C. (Sigma X4626). Pre-warm to 37° C. before use.\n(§8) Prepare solution: Add 2.15 μl of menadione/ml (final concentration 12.5 μM 0 2.15 mg/l) to 1 ml of XTT directly before use. Prepare XTT-menadione solution equal to 20% of the culture medium volume to be tested.\n(§9) Results are shown below and represented graphically in FIGS. 1 and 2. “Blank” is cell culture medium only."}, "T-24 cells": {"system": "T-24 cells", "test": "Cancer cell viability assay (XTT)", "assay_type": "cell-based, human", "conditions": "for % cell survival / Absorbance unit / Absorbance unit - Blank: triplicate, (hydrochloride)", "protocol": "as §1, §2, §3, §4, §5, §6, §7, §8, §9"}, "[1]": {"system": "Staphylococcus epidermidis Se19 (Clinical Isolate, Jan Ingemar Falk)", "test": "Minimum inhibitory concentration (MIC), visible growth", "assay_type": "cell-based"}, "[2]": {"system": "Pseudomonas aeruginosa PA02", "test": "Minimum inhibitory concentration (MIC), visible growth", "assay_type": "cell-based"}}, "note": "Several values for one entry are separate records, joined by “and”; a condition that tells them apart may be missing. Identical values can stand only once. Counter-ions that a name gives are not always drawn.", "data": [{"smiles": "NCCSSc1ccccn1", "note": "[PDEA, 2-(Pyridyldithio)ethylamine (hydrochloride)]", "values": [{"measurement": "% cell survival", "setting": "5637 cells; 12.5 μM", "value": "104.6875% and 96.65% and 91.2594%"}, {"measurement": "Absorbance unit", "setting": "5637 cells; 12.5 μM", "value": "1.229 and 1.224 and 1.119"}, {"measurement": "Absorbance unit - Blank", "setting": "5637 cells; 12.5 μM", "value": "1.072 and 1.069 and 0.971"}, {"measurement": "% cell survival", "setting": "5637 cells; 25 μM", "value": "109.082% and 103.9783% and 102.2556%"}, {"measurement": "Absorbance unit", "setting": "5637 cells; 25 μM", "value": "1.274 and 1.305 and 1.236"}, {"measurement": "Absorbance unit - Blank", "setting": "5637 cells; 25 μM", "value": "1.117 and 1.15 and 1.088"}, {"measurement": "% cell survival", "setting": "5637 cells; 50 μM", "value": "115.0391% and 99.55% and 123.5902%"}, {"measurement": "Absorbance unit", "setting": "5637 cells; 50 μM", "value": "1.335 and 1.256 and 1.463"}, {"measurement": "Absorbance unit - Blank", "setting": "5637 cells; 50 μM", "value": "1.178 and 1.101 and 1.315"}, {"measurement": "% cell survival", "setting": "5637 cells; 100 μM", "value": "83.4% and 52.8% and 57.42%"}, {"measurement": "Absorbance unit", "setting": "5637 cells; 100 μM", "value": "1.011 and 0.739 and 0.759"}, {"measurement": "Absorbance unit - Blank", "setting": "5637 cells; 100 μM", "value": "0.854 and 0.584 and 0.611"}, {"measurement": "% cell survival", "setting": "5637 cells; 200 μM", "value": "3.613% and 3.436% and 4.793%"}, {"measurement": "Absorbance unit", "setting": "5637 cells; 200 μM", "value": "0.194 and 0.193 and 0.199"}, {"measurement": "Absorbance unit - Blank", "setting": "5637 cells; 200 μM", "value": "0.037 and 0.038 and 0.051"}, {"measurement": "cytotoxicity at 100 µM", "setting": "5637 cells; Homo sapiens, 100 μM PDEA, 24 hrs, read-out: cell viability reduced by", "value": "17 to 47", "unit": "%"}, {"measurement": "cytotoxicity at 200 µM", "setting": "5637 cells; Homo sapiens, 200 μM PDEA, 24 hrs, read-out: cell viability reduced by", "value": "95 to 100", "unit": "%"}, {"measurement": "% cell survival", "setting": "T-24 cells; 12.5 μM", "value": "99.37% and 98.6% and 99.88%"}, {"measurement": "Absorbance unit", "setting": "T-24 cells; 12.5 μM", "value": "1.63 and 1.659 and 1.884"}, {"measurement": "Absorbance unit - Blank", "setting": "T-24 cells; 12.5 μM", "value": "1.429 and 1.483 and 1.686"}, {"measurement": "% cell survival", "setting": "T-24 cells; 25 μM", "value": "100.1391% and 95.0133% and 97.81%"}, {"measurement": "Absorbance unit", "setting": "T-24 cells; 25 μM", "value": "1.641 and 1.605 and 1.849"}, {"measurement": "Absorbance unit - Blank", "setting": "T-24 cells; 25 μM", "value": "1.44 and 1.429 and 1.651"}, {"measurement": "% cell survival", "setting": "T-24 cells; 50 μM", "value": "76.43% and 73.67% and 89.6327%"}, {"measurement": "Absorbance unit", "setting": "T-24 cells; 50 μM", "value": "1.3 and 1.284 and 1.711"}, {"measurement": "Absorbance unit - Blank", "setting": "T-24 cells; 50 μM", "value": "1.099 and 1.108 and 1.513"}, {"measurement": "% cell survival", "setting": "T-24 cells; 100 μM", "value": "65.3% and 80.52% and 62.09%"}, {"measurement": "Absorbance unit", "setting": "T-24 cells; 100 μM", "value": "1.14 and 1.387 and 1.246"}, {"measurement": "Absorbance unit - Blank", "setting": "T-24 cells; 100 μM", "value": "0.939 and 1.211 and 1.048"}, {"measurement": "cytotoxicity at 50 µM", "setting": "T-24 cells; Homo sapiens, T-24, 50 μM PDEA, 24 hrs, read-out: cell viability reduced by", "value": "10 to 26", "unit": "%"}, {"measurement": "cytotoxicity at 200 µM", "setting": "T-24 cells; Homo sapiens, T-24, 200 μM PDEA, 24 hrs, read-out: cell viability reduced by", "value": "83 to 100", "unit": "%"}, {"measurement": "visible growth readout", "setting": "[1]; 0.01 mM", "value": "Foggy"}, {"measurement": "visible growth readout", "setting": "[1]; 0.025 mM", "value": "Foggy"}, {"measurement": "visible growth readout", "setting": "[1]; 0.05 mM", "value": "Clear"}, {"measurement": "visible growth readout", "setting": "[1]; 0.1 mM", "value": "Clear"}, {"measurement": "MIC", "setting": "[1]; Staphylococcus epidermidis, 24 h", "value": "25 to 50", "unit": "µM"}, {"measurement": "visible growth readout", "setting": "[2]; 0.05 mM", "value": "Foggy"}, {"measurement": "visible growth readout", "setting": "[2]; 0.1 mM", "value": "Foggy"}, {"measurement": "visible growth readout", "setting": "[2]; 0.2 mM", "value": "Clear"}, {"measurement": "visible growth readout", "setting": "[2]; 0.4 mM", "value": "Clear"}, {"measurement": "MIC", "setting": "[2]; Pseudomonas aeruginosa, PA02, 24 h", "value": "100 to 200", "unit": "µM"}]}]}
